In paper PMC6017603, “Speeding Up the Identification of Cystic Fibrosis Transmembrane Conductance Regulator-Targeted Drugs: An Approach Based on Bioinformatics Strategies and Surface Plasmon Resonance” (Molecules : A Journal of Synthetic Chemistry and Natural …, 2018):

Tests used:
NBD1 = details: cited from earlier work
ΔF508-NBD1 = target: T1, ΔF508-NBD1 (Mus musculus, UniProt P26361, DEL508-508); experiment: SPR direct binding to sensor chip-immobilized ΔF508-NBD1; parameters: species or system murine; details: for binding to ΔF508-NBD1 (SPR): increasing concentrations injected over immobilized ΔF508-NBD1; for Kd / RU of ligand bound to ΔF508-NBD1 at equilibrium (maximal RU): SPR; for Kd: Scatchard's plot analysis of equilibrium binding data, mean ± S.D. of two-three analyses, PBS, 0.05% P20, 5% DMSO, pH 7.4, 25 °C; for RU of ligand bound to ΔF508-NBD1 at equilibrium (maximal RU): mean ± s.d. of two-three separate analyses
T1 construct: Murine WT NBD1 and ΔF508-NBD1 were obtained from CFTR Folding Consortium; purchased CFTR Folding Consortium (obtained, not a commercial vendor)
T1 sequence (P26361 with tags, fused parts or gaps DEL508-508 limits assumed): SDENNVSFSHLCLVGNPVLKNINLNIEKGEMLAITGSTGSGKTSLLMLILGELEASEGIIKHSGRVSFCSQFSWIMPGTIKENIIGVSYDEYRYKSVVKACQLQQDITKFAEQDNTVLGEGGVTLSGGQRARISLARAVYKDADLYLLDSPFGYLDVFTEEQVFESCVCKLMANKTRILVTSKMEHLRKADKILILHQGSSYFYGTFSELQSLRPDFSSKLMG
Method: SPR measurements were performed on a BIAcore X-100 instrument (GE-Healthcare, Milwaukee, WI, USA), using research-grade CM5 carboxyl-methyl-dextran–coated sensor chips (GE-Healthcare). The murine ΔF508-NBD1 was resuspended at 20 µg/mL in 10 mM sodium acetate pH 4.0 and allowed to react with the first flow cell of a CM5 sensor chip pre-activated with 50 μL of 0.2 M EDC and 0.05 M NHS and deactivated by injection of HCl–ethanolamine. This procedure led to the immobilization of 11,000 RU, equal to approximately 400 fmol/mm^2 of protein. Similar results were obtained for the injection of BSA (20 µg/mL) onto the second flow cell of each sensor chip, used as a negative control and for blank subtraction. The appropriate immobilization of ΔF508-NBD1 was checked by injecting increasing concentrations of K8 in PBS, 0.05% surfactant P20 and 5% DMSO, pH 7.4 over the sensor chip for 90 s at 10 μL/min, 25 °C and then washed until dissociation was observed. The inclusion of 5% DMSO in the running buffer (not necessary for protein-protein interaction analysis) and the short association time were chosen to validate ΔF508-NBD1 binding availability in the experimental conditions used for the subsequent analysis of the compounds (see below).
For the evaluation of their capacity to directly bind to ΔF508-NBD1, increasing concentrations of the various compounds of the data-set were resuspended in PBS, 0.05% surfactant P20 and 5% DMSO, pH 7.4, injected over ΔF508-NBD1 or BSA surfaces for 90 s at 10 μL/min, 25 °C and then washed until dissociation was observed. Steady state analysis were performed by fitting the proper form of Scatchard’s equation for the plot of the bound RU at equilibrium versus the compound concentration in solution. When saturation binding was reached, Kd values were calculated. In the case no saturation could be reached due the limited solubility of the compound under test, the software provided a Kd value expected on the bases of the curve’s trend.

[1] = target: T2, K8/ΔF508-NBD1 interaction (Mus musculus, UniProt P26361, DEL508-508); experiment: SPR injection of compounds onto K8-saturated ΔF508-NBD1 surface; format: binding, murine; details: compounds at 150 μM; K8 1 µM saturating
T2 construct: Murine WT NBD1 and ΔF508-NBD1 were obtained from CFTR Folding Consortium; purchased ΔF508-NBD1: CFTR Folding Consortium (obtained); K8: Pro-Spec-Tany TechnoGene Ltd
T2 sequence (P26361 with tags, fused parts or gaps DEL508-508 limits assumed): as above
Method: In a further series of experiments, a saturating amount of K8 (1 µM) was injected on the ΔF508-NBD1 surface and allowed to reach an equilibrium binding. Then, the various compounds of the data-set (150 µM) were injected and their capacity to affect the binding of K8 to ΔF508-NBD1 evaluated.

[2] = target: T3, ΔF508-NBD1/K8 interaction (Mus musculus, UniProt P26361, DEL508-508); experiment: SPR competition assay: ΔF508-NBD1 binding to immobilized K8 in the presence of compounds; parameters: species or system murine; details: ΔF508-NBD1 600 nM, compound 500 μM; for ΔF508-NBD1 bound to immobilized K8 at equilibrium in the presence of compound: 5% DMSO, ΔF508-NBD1 alone 35 RU
T3 construct: Murine WT NBD1 and ΔF508-NBD1 were obtained from CFTR Folding Consortium; purchased ΔF508-NBD1: CFTR Folding Consortium (obtained); K8: Pro-Spec-Tany TechnoGene Ltd
T3 sequence (P26361 with tags, fused parts or gaps DEL508-508 limits assumed): as above
Method: K8 was used since, as a representative ΔF508-CFTR chaperones, has been repeatedly used for SPR studies and its binding site in ΔF508-CFTR has been mapped. To perform competition assays for the binding to ΔF508-NBD1 between the various compounds and K8, the latter was resuspended at 20 µg/mL in 10 mM sodium acetate pH 4.0 and allowed to react with the first flow cell of a CM5 sensor chip pre-activated with 50 μL of 0.2 M EDC and 0.05 M NHS and deactivated by injection of HCl–ethanolamine. This procedure led to the immobilization of 7800 RU of the protein, (equal to approximately 146 fmol/mm^2). Similar results were obtained for the injection of BSA (10 μg/mL) onto the second flow cell of each sensor chip, that was then used as a negative control and for blank subtraction. ΔF508-NBD1 (at 600 nM) in the absence or in the presence of the various compounds (all at 500 μM) in 0.05% surfactant P20 and 5% DMSO, pH 7.4, was injected over the K8 or BSA surfaces for 90 s at 10 μL/min, 25 °C and then washed until dissociation was observed.

| binding to ΔF508-NBD1 (SPR) (ΔF508-NBD1) | Kd (ΔF508-NBD1) [µM] | RU of ligand bound to ΔF508-NBD1 at equilibrium (maximal RU) (ΔF508-NBD1) [RU] | Molecule | effect of compound injection on K8-saturated ΔF508-NBD1 surface [1] | also measured |
| --- | --- | --- | --- | --- | --- |
| do not bind | – | – | COc1ccc(Cl)cc1Nc1nc(-c2sc(NC(=O)c3ccccc3)nc2C)cs1 [C4a, reference compound] | – | binding to NBD1 (NBD1): does not bind to NBD1 |
| – | 99.3 ± 14.5 | 32.0 ± 4.2 | CSc1cccc(Nc2nc(-c3ccc(Br)cc3)cs2)c1 [Compound 4] | inability of compounds 4 and 6 to alter the binding of K8 | inhibition at 500 µM [2]: 50% |
| – | 40.3 ± 2.5 | 13.0 ± 1.4 | CSc1cccc(Nc2nc(-c3cccc(Cl)c3)cs2)c1 [Compound 5] | increase of bound RU | ΔF508-NBD1 bound to immobilized K8 at equilibrium in the presence of compound [2]: 45 RU |
| – | 198 ± 4.5 | 114.0 ± 5.6 | CSc1cccc(Nc2nc(-c3ccc4[nH]c(=O)oc4c3)cs2)c1 [Compound 6] | inability of compounds 4 and 6 to alter the binding of K8 | effect on the ΔF508-NBD1/K8 interaction [2]: ineffective |
| do not bind | – | 0 to 4 | CSc1cccc(Nc2nc(-c3coc4ccccc34)cs2)c1 [Compound 7] | – | – |
| do not bind | – | – | CC(C)(C)c1cc(C(C)(C)C)c(NC(=O)c2c[nH]c3ccccc3c2=O)cc1O [VX770, Ivacaftor, reference compound] | – | binding to NBD1 (NBD1): does not bind to NBD1 |
| – | 24.2 ± 6.2 | 163.7 ± 23.7 | Cc1ccc(NC(=O)C2(c3ccc4c(c3)OC(F)(F)O4)CC2)nc1-c1cccc(C(=O)O)c1 [VX809, Lumacaftor, reference compound] | increase of bound RU | ΔF508-NBD1 bound to immobilized K8 at equilibrium in the presence of compound [2]: 68 RU |
| – | – | – | K8: keratin 8, known CFTR chaperone, purchased recombinant protein (protein, UniProt P05787 1-483, looked up) Keratin, type II cytoskeletal …: MSIRVTQKSYKVSTSGPRAFSSRSYTSGPGSRISSSSFSRVGSSNFRGGLGGGYGGASGMGGITAVTVNQSLLSPLVLEVDPNIQAVRTQEKEQIKTLNNKFASFIDKVRFLEQQNKMLETKWSLLQQQKTARSNMDNMFESYINNLRRQLETLGQEKLKLEAELGNMQGLVEDFKNKYEDEINKRTEMENEFVLIKKDVDEAYMNKVELESRLEGLTDEINFLRQLYEEEIRELQSQISDTSVVLSMDNSRSLDMDSIIAEVKAQYEDIANRSRAEAESMYQIKYEELQSLAGKHGDDLRRTKTEISEMNRNISRLQAEIEGLKGQRASLEAAIADAEQRGELAIKDANAKLSELEAALQRAKQDMARQLREYQELMNVKLALDIEIATYRKLLEGEESRLESGMQNMSIHTKTTSGYAGGLSSAYGGLTSPGLSYSLGSSFGSGAGSSSFSRTSSSRAVVVKKIETRDGKLVSESSDVLPK | – | binding of K8 to immobilized ΔF508-NBD1 (ΔF508-NBD1; K8 600 nM, BSA surface as negative control): specifically binds |
